In patent publication US12397045B2, “Clostridioides difficile” (IMPERIAL COLLEGE OF SCIENCE, TECHNOLOGY AND MEDICINE, priority 2018, dated 2025):

What was measured:
[1] = tested on: colonocyte cell line Caco2; assay: MTT viability assay of Caco2 cells; format: cell-based; conditions: 45 mM, 48 h
Experimental: A higher OD value represents greater viability.
The inventors determined to what extent the C5, C6 and C7 chain length fatty acids affect viability of the colonocyte cell line Caco2. Caco2 cells were grown until confluent in DMEM with serum and then trypsinised and diluted to 10^5 cells per ml and re-seeded into a 24 well plate and allowed to grow for a further 48 hours. At this point they were exposed to a 45 mM concentration of the SCFA or MCFA for 48 h and viability assessed using an MT assay.

C. difficile = assay: Growth inhibition of C. difficile with 20 mM short or medium chain fatty acids; format: cell-based, Clostridioides difficile; conditions: 20 mM fatty acid
Excerpt: Acetate is a C2 chain and they increase by one carbon until heptanoate is reached which is C7.
The inventors assessed a range of short/medium chain fatty acids (S/MCFA).

CD010 = assay: Isovalerate inhibition of C. difficile growth; format: cell-based, Clostridioides difficile; conditions: strain CD010
Excerpt: (§1) The inventors tested the ability of isovalerate to inhibit C. difficile growth (FIG. 36).

CD 027 = assay: Isovalerate inhibition of C. difficile growth; format: cell-based, Clostridioides difficile; conditions: strain CD 027
Excerpt: as §1

CD012 = assay: Isovalerate inhibition of C. difficile growth; format: cell-based, Clostridioides difficile; conditions: strain CD012
Excerpt: as §1

Bacteroides uniformis = assay: Batch cultures of gut commensal with valerate (OD600); format: cell-based; conditions: only concentration that inhibited, p=0.026
Experimental: (§2) Vegetative cells were inoculated into sBHI broth containing varying concentrations of valerate (o, 1, 2, 3, 4, 5, 10, and 20 mM) and OD600 measurements were taken at 0, 2, 4, 6, and 8 hours. The change in OD600 (from a time point during the exponential phase) was plotted against the concentrations of valerate tested. (a) C. difficile ribotype 010, (b) C. difficile ribotype 012, (c) C. difficile ribotype 027, (d) Bacteroides uniformis, (e) Bacteroides vulgatus, (f) Clostridium scindens. Error bars represent the mean standard deviation, * p<0.05, ** p<0.01, *** p<0.001.
(§3) The inventors tested the effects of valerate (Fisher Scientific) on the vegetative growth of three C. difficile ribotypes (010, 012, and 027) as well as several gut commensal bacteria (Bacteroides uniformis, Bacteroides vulgatus, and Clostridium scindens). […] The inventors plotted the changes in OD600 (from a time point during the exponential phase) against each concentration of valerate tested. The inventors used ANOVA and Tukey post hoc test to determine whether the concentration of valerate tested affected the growth of the test isolate compared to batch cultures grown in the absence of valerate.
(§4) C. difficile DS1684 (ribotype 010, non-toxigenic strain) was used for chemostat model experiments. C. difficile DS1684, C. difficile CD630 (ribotype 012, virulent multidrug resistant strain), C. difficile R20291 (ribotype 027, a hypervirulent strain), Bacteroides uniformis, Bacteroides vulgatus, and Clostridium scindens (DSM 5676) were used in batch culture experiments. C. difficile ribotype 027 is a common ribotype in Europe and North America,^1-3 while ribotype 012 is one of the common ribotypes in mainland China.^4,5 CD630 and R20291 are genetically and phenotypically well-characterised and are good representatives of their ribotypes.^6 B. uniformis and B. vulgatus were isolated from the stool of a healthy person using fastidious anaerobe agar (Lab M, Heywood, UK) or nutrient agar (Sigma-Aldrich, St. Louis, USA), respectively.

Bacteroides vulgatus = assay: as above; format: cell-based
Experimental: as §2, §3, §4

Clostridium scindens = assay: as above; format: cell-based; conditions: 0-20 mM valerate tested, p>0.05
Experimental: as §2, §3, §4

[2] = tested on: C. difficile ribotype 027; assay: C. difficile batch cultures, vegetative growth with valerate (OD600); format: cell-based, Clostridioides difficile; conditions: sBHI broth pH 6.8, p=0.008
Experimental: as §2, §3, §4

[3] = tested on: C. difficile ribotype 012; assay: as above; format: cell-based, Clostridioides difficile; conditions: sBHI broth pH 6.8, p=0.003
Experimental: as §2, §3, §4

[4] = tested on: C. difficile ribotype 010; assay: as above; format: cell-based, Clostridioides difficile; conditions: sBHI broth pH 6.8, p=0.008
Experimental: as §2, §3, §4

gut organoids = conditions: 5 mM valerate; personal communication; cited from earlier work
[5] = tested on: 6 strains of C. difficile; assay: Valerate inhibition of 6 strains of C. difficile (change in OD600); format: cell-based, Clostridioides difficile; conditions: 0, 5, 10, 20 mM valerate
Excerpt: Error bars represent mean±SD. **p<0.01;[…] (ANOVA and Tukey post hoc test), N=12.
As there are many strains of the C. difficile pathogen, the inventors extended the range of strains to determine how valerate inhibited growth (FIG. 32), and have also assessed the ability of valerate to target other species of bacteria (FIG. 33).

Structure (SMILES)	viability of colonocytes [1]	inhibition of C. difficile growth (C. difficile)	potency at inhibiting growth relative to valerate (C. difficile)	viability of colonocytes ([1]; listed as C6)	inhibition of C. difficile growth (CD010)	inhibition of C. difficile growth (CD 027)	inhibition of C. difficile growth (CD012)	valerate concentration inhibiting growth (Bacteroides uniformis)	inhibition of growth by valerate (Bacteroides vulgatus; 0-20 mM valerate tested)	growth in broths containing valerate (Bacteroides vulgatus; 10 mM (p=0.020) or 20 mM (p=0.019) valerate)	inhibition of growth by valerate (Clostridium scindens)	valerate concentration inhibiting vegetative growth [2]	valerate concentration inhibiting vegetative growth [3]	valerate concentration inhibiting vegetative growth [4]	cell death / alterations in gene expression (gut organoids)	inhibition of growth of C. difficile strains [5]
CCCCCCC(=O)O [heptanoate, heptanoic acid]	do not significantly decrease	potent inhibitors	significantly more potent													
CCCCCC(=O)O [hexanoate, hexanoic acid]	significantly increased	potent inhibitors	significantly more potent	do not significantly decrease												
CC(C)CC(=O)O [isovalerate]					significant ability to inhibit growth	comparable to valerate	significant ability to inhibit growth									
CCCCC(=O)O [valerate, valeric acid]	do not significantly decrease	potent inhibitors			inhibited to a greater extent		inhibited to a greater extent	20 mM	not inhibited at any concentration	grew better	not inhibited at any concentration	2 mM	2 mM	4 mM	did not result in cell death or cause significant alterations in gene expression	effective against all strains
